This is an account of results in PMC3537892 (Clinical cancer research : an official journal of the …, 2012).

The test system of the test is RENCA renal cancer cells grafted in the renal capsule. Nature of the test: Orthotopic RENCA renal cancer allograft. As to conditions: three i.v. injections in fourth week after grafting; p < 0.003. Type of test: in vivo, BALB/c mice.

`CC(=O)O[C@H]1C(=O)[C@@]2(C)[C@H]([C@H](OC(=O)c3ccccc3)[C@]3(O)C[C@H](OC(=O)[C@H](O)[C@@H](NC(=O)c4ccccc4)c4ccccc4)C(C)=C1C3(C)C)[C@]1(OC(C)=O)CO[C@@H]1C[C@@H]2O` [PTX, paclitaxel]: the “tumor volume compared to vehicle control” value is “significantly decreased tumor volume”.
